Data: patent US20230019236A1, “PROTEIN TYROSINE PHOSPHATASE INHIBITORS AND METHODS OF USE THEREOF” (Calico Life Sciences LLC, priority 2019, published 2023)

What was measured:
[1] = target: T1, His tagged full-length PTP1B protein (Homo sapiens, UniProt P18031); experiment: Mobility Shift Assay (MSA) used to determine potency of PTP1B inhibitors; format: biochemical; conditions: Table 2
T1 construct: made in house
T1 sequence (P18031 with tags, fused parts or gaps): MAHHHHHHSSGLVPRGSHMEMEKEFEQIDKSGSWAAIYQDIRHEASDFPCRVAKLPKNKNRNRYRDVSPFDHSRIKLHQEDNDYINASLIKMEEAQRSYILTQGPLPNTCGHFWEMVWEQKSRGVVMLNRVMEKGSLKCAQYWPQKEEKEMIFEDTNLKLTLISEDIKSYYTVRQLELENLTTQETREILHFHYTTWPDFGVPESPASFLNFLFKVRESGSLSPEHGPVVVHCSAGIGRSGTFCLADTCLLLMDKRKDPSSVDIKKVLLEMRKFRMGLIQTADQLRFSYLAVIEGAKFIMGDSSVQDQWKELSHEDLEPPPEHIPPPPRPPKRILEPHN
Experimental: The enzymatic assay used to determine activity is a mobility shift assay using a LabChip EZ Reader by Caliper Life Sciences. The enzymatic reaction was carried out in assay buffer (50 mM HEPES pH 7.5, 1 mM EGTA, 10 mM EDTA, 0.01% Tween® 20, and 2 mM DTT). […] The enzyme (at 0.5 nM) was incubated with compound for 10 minutes at room temperature. […] The % inhibition was then used to calculate the IC50 values.

[2] = target: T2, His tagged PTPN2 (TC45) protein (Homo sapiens, UniProt P17706); experiment: Mobility Shift Assay used to determine potency of PTPN2 inhibitors; format: biochemical; conditions: Table 2; read-out: PTPN2 MSA IC50
T2 construct: made in house
T2 sequence (P17706 with tags, fused parts or gaps isoform P17706-2): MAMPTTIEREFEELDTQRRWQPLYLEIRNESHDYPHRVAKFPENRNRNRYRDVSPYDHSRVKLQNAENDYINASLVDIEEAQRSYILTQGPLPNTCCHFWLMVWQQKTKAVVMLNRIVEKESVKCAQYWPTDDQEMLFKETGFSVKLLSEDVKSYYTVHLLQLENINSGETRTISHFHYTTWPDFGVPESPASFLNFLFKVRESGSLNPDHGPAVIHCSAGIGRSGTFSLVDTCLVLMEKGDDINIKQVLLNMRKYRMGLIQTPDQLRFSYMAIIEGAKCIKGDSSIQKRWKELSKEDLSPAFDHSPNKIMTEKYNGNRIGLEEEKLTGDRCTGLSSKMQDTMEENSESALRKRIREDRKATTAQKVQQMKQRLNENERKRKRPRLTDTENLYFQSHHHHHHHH
Experimental: Example 292: Mobility Shift Assay used to determine potency of PTPN2 inhibitors
Compound activity was determined using in house His tagged PTPN2 (TC45) protein (SEQ ID NO: 1) in an in vitro enzymatic reaction. The enzymatic assay used to determine activity was a mobility shift assay using a LabChip EZ Reader by Caliper Life Sciences. The enzymatic reaction was carried out in assay buffer (50 mM HEPES pH 7.5, 1 mM EGTA, 10 mM EDTA, 0.01% Tween® 20, and 2 mM DTT). The compounds were dispensed on a white 384 well ProxiPlate™ (PerkinElmer Catalog#6008289) plate using the Labcyte Echo at varying concentrations (12 point, 1:3 dilution). The enzyme (at 0.5 nM) was incubated with compound for 10 minutes at room temperature. Then the substrate (phosphorylated insulin receptor probe sequence: ((OG488)—{NH—CH2—CH2—O—CH2—CH2—O—CH2—CO)—T—R—D—I—(PY)—E—T—D—Y—Y—R—K—K—NH2) (SEQ ID NO: 2) was added at 2 μM to the plates and incubated for another 10 minutes at room temperature. Finally, a quench solution (water and 4-bromo-3-(2-oxo-2-propoxyethoxy)-5-(3-{[1-(phenylmethanesulfonyl)piperidin-4-yl]amino}phenyl)thiophene-2-carboxylic acid) was added to the plates, which were then run on the EZ Reader (excitation 488 nm, emission 530 nm) to measure % conversion (the amount of phosphorylated substrate which was de-phosphorylated by PTPN2). […] The % inhibition was then used to calculate the IC50 values.

## CCC(O)COc1ccc2cc(O)c(N3CC(=O)NS3(=O)=O)c(F)c2c1 (centres unmarked) [Compound 327, 5-[1-fluoro-3-hydroxy-7-(2-hydroxybutoxy)naphthalen-2-yl]-1λ^6,2,5-thiadiazolidine-1,1,3-trione]
[1]
  IC50: < 1 nM
[2]
  IC50: < 1 nM

## COCCCOc1cc2c(F)c(N3CC(=O)NS3(=O)=O)c(O)cc2cc1O [Compound 368, 5-[1-fluoro-3,6-dihydroxy-7-(3-methoxypropoxy)naphthalen-2-yl]-1λ^6,2,5-thiadiazolidine-1,1,3-trione]
[1]
  IC50: < 1 nM
[2]
  IC50: < 1 nM

## CC(C)CCNc1ccc2c(F)c(N3CC(=O)NS3(=O)=O)c(O)cc2c1 [Compound 332, 5-{1-fluoro-3-hydroxy-6-[(3-methylbutyl)amino]naphthalen-2-yl}-1λ^6,2,5-thiadiazolidine-1,1,3-trione]
[1]
  IC50: 10 to 100 nM
[2]
  IC50: 10 to 100 nM

## CC(C)(O)CCOc1ccc2c(F)c(N3CC(=O)NS3(=O)=O)c(O)cc2c1 [Compound 334, 5-[1-fluoro-3-hydroxy-6-(3-hydroxy-3-methylbutoxy)naphthalen-2-yl]-1λ^6,2,5-thiadiazolidine-1,1,3-trione]
[1]
  IC50: > 100 nM
[2]
  IC50: 10 to 100 nM

## CC(C)(O)CCOc1cc2c(F)c(N3CC(=O)NS3(=O)=O)c(O)cc2cc1O [Compound 355, 5-[1-fluoro-3,6-dihydroxy-7-(3-hydroxy-3-methylbutoxy)naphthalen-2-yl]-1λ^6,2,5-thiadiazolidine-1,1,3-trione]
[1]
  IC50: < 1 nM
[2]
  IC50: < 1 nM

## CCCCOc1cc2c(F)c(N3CC(=O)NS3(=O)=O)c(O)cc2cc1O [Compound 363, 5-(7-butoxy-1-fluoro-3,6-dihydroxynaphthalen-2-yl)-1λ^6,2,5-thiadiazolidine-1,1,3-trione]
[1]
  IC50: < 1 nM
[2]
  IC50: < 1 nM

## O=C1CN(c2c(O)cc3ccc(OCCOC(F)(F)F)cc3c2F)S(=O)(=O)N1 [Compound 354, 5-{1-fluoro-3-hydroxy-7-[2-(trifluoromethoxy)ethoxy]naphthalen-2-yl}-1λ^6,2,5-thiadiazolidine-1,1,3-trione]
[1]
  IC50: 1 to 10 nM
[2]
  IC50: 1 to 10 nM

## O=C1CN(c2c(O)cc3cc(OCC4CC4)ccc3c2F)S(=O)(=O)N1 [Compound 338, 5-[6-(cyclopropylmethoxy)-1-fluoro-3-hydroxynaphthalen-2-yl]-1λ^6,2,5-thiadiazolidine-1,1,3-trione]
[1]
  IC50: 10 to 100 nM
[2]
  IC50: 10 to 100 nM

## CC(O)(CO)CCOc1ccc2cc(O)c(N3CC(=O)NS3(=O)=O)c(F)c2c1 (centres unmarked) [Compound 323, 5-[7-(3,4-dihydroxy-3-methylbutoxy)-1-fluoro-3-hydroxynaphthalen-2-yl]-1λ^6,2,5-thiadiazolidine-1,1,3-trione]
[1]
  IC50: < 1 nM
[2]
  IC50: < 1 nM

## Nc1ccc2c(F)c(N3CC(=O)NS3(=O)=O)c(O)cc2c1 [Compound 329, 5-(6-amino-1-fluoro-3-hydroxynaphthalen-2-yl)-1λ^6,2,5-thiadiazolidine-1,1,3-trione]
[1]
  IC50: 10 to 100 nM
[2]
  IC50: 1 to 10 nM

## CC(C)CCOc1cc2c(F)c(N3CC(=O)NS3(=O)=O)c(O)cc2cc1O [Compound 361, 5-[1-fluoro-3,6-dihydroxy-7-(3-methylbutoxy)naphthalen-2-yl]-1λ^6,2,5-thiadiazolidine-1,1,3-trione]
[1]
  IC50: < 1 nM
[2]
  IC50: < 1 nM

## O=C1CN(c2c(O)cc3ccc(OCCC4CCC4)cc3c2F)S(=O)(=O)N1 [Compound 353, 5-[7-(2-cyclobutylethoxy)-1-fluoro-3-hydroxynaphthalen-2-yl]-1λ^6,2,5-thiadiazolidine-1,1,3-trione]
[1]
  IC50: < 1 nM
[2]
  IC50: < 1 nM

## O=C1CN(c2c(O)cc3ccc(OCCC4CCCC4)cc3c2F)S(=O)(=O)N1 [Compound 351, 5-[7-(2-cyclopentylethoxy)-1-fluoro-3-hydroxynaphthalen-2-yl]-1λ^6,2,5-thiadiazolidine-1,1,3-trione]
[1]
  IC50: < 1 nM
[2]
  IC50: < 1 nM

## O=C1CN(c2c(O)cc3cc(O)c(OCCC4CC4)cc3c2F)S(=O)(=O)N1 [Compound 356, 5-[7-(2-cyclopropylethoxy)-1-fluoro-3,6-dihydroxynaphthalen-2-yl]-1λ^6,2,5-thiadiazolidine-1,1,3-trione]
[1]
  IC50: < 1 nM
[2]
  IC50: < 1 nM

## CC(C)(CCN)CCOc1ccc2cc(O)c(N3CC(=O)NS3(=O)=O)c(F)c2c1 [Compound 348, 5-{7-[(5-amino-3,3-dimethylpentyl)oxy]-1-fluoro-3-hydroxynaphthalen-2-yl}-1λ^6,2,5-thiadiazolidine-1,1,3-trione]
[1]
  IC50: < 1 nM
[2]
  IC50: < 1 nM

## O=C1CN(c2c(O)cc3ccc(NCCCC(F)F)cc3c2F)S(=O)(=O)N1 [Compound 324, 5-{7-[(4,4-difluorobutyl)amino]-1-fluoro-3-hydroxynaphthalen-2-y}-1λ^6,2,5-thiadiazolidine-1,1,3-trione]
[1]
  IC50: < 1 nM
[2]
  IC50: < 1 nM

## NCCOc1ccc2c(F)c(N3CC(=O)NS3(=O)=O)c(O)cc2c1 [Compound 337, 5-[6-(2-aminoethoxy)-1-fluoro-3-hydroxynaphthalen-2-yl]-1λ^6,2,5-thiadiazolidine-1,1,3-trione]
[1]
  IC50: 10 to 100 nM
[2]
  IC50: 10 to 100 nM

## COc1ccc2c(F)c(N3CC(=O)NS3(=O)=O)c(O)cc2c1 [Compound 335, 5-(1-fluoro-3-hydroxy-6-methoxynaphthalen-2-yl)-11λ^6,2,5-thiadiazolidine-1,1,3-trione]
[1]
  IC50: 10 to 100 nM
[2]
  IC50: 10 to 100 nM

## NCCCS(=O)(=O)N1CC=C(c2ccc3cc(O)c(N4CC(=O)NS4(=O)=O)c(F)c3c2)C1 [Compound 345, 5-{7-[1-(3-aminopropane-1-sulfonyl)-2,5-dihydro-1H-pyrrol-3-yl]-1-fluoro-3-hydroxynaphthalen-2-yl}-1λ^6,2,5-thiadiazolidine-1,1,3-trione]
[1]
  IC50: 1 to 10 nM
[2]
  IC50: < 1 nM

## O=C1CN(c2c(O)cc3cc(NCC4CC4)ccc3c2F)S(=O)(=O)N1 [Compound 331, 5-{6-[(cyclopropylmethyl)amino]-1-fluoro-3-hydroxynaphthalen-2-yl}-1λ^6,2,5-thiadiazolidine-1,1,3-trione]
[1]
  IC50: 10 to 100 nM
[2]
  IC50: 10 to 100 nM

## C[C@@H](O)C[C@@H](O)COc1ccc2cc(O)c(N3CC(=O)NS3(=O)=O)c(F)c2c1 (racemic) [Compound 325, 5-(7-{[rac-(2R,4R)-2,4-dihydroxypentyl]oxy}-1-fluoro-3-hydroxynaphthalen-2-yl)-1λ^6,2,5-thiadiazolidine-1,1,3-trione]
[1]
  IC50: 1 to 10 nM
[2]
  IC50: 1 to 10 nM

## O=C1CN(c2c(O)cc3cc(O)c(Br)cc3c2F)S(=O)(=O)N1 [Compound 370, 5-(7-bromo-1-fluoro-3,6-dihydroxynaphthalen-2-yl)-1λ^6,2,5-thiadiazolidine-1,1,3-trione]
[1]
  IC50: 1 to 10 nM
[2]
  IC50: 1 to 10 nM

## CC(C)(C)CCOc1cc2c(F)c(N3CC(=O)NS3(=O)=O)c(O)cc2cc1O [Compound 359, 5-[7-(3,3-dimethylbutoxy)-1-fluoro-3,6-dihydroxynaphthalen-2-yl]-1λ^6,2,5-thiadiazolidine-1,1,3-trione]
[1]
  IC50: < 1 nM
[2]
  IC50: < 1 nM

## O=C1CN(c2c(O)cc3cc(NCCCC(F)F)ccc3c2F)S(=O)(=O)N1 [Compound 330, 5-{6-[(4,4-difluorobutyl)amino]-1-fluoro-3-hydroxynaphthalen-2-y}-1λ^6,2,5-thiadiazolidine-1,1,3-trione]
[1]
  IC50: 10 to 100 nM
[2]
  IC50: 10 to 100 nM

## C[C@@](O)(CC#N)CCOc1ccc2cc(O)c(N3CC(=O)NS3(=O)=O)c(F)c2c1 [Compound 346, (3R)-5-{[8-fluoro-6-hydroxy-7-(1,1,4-trioxo-1λ^6,2,5-thiadiazolidin-2-yl)naphthalen-2-yl]oxy}-3-hydroxy-3-methylpentanenitrile]
[1]
  IC50: < 1 nM
[2]
  IC50: < 1 nM
